Residues, ends and D or L forms follow the SMILES beside them.
Biological target: Nucleic Acid
Test: Dissociation constant with HIV-1 trans activation responsive element of mRNA was determined
Type: nucleic-acid assay, Human immunodeficiency virus 1

| Kd | Kd (read-out: Kd) | SMILES |
| --- | --- | --- |
| No binding | – | C[C@H](N)C(=O)N[C@@H](C)C(=O)N[C@@H](C)C(=O)N[C@@H](C)C(=O)N[C@@H](C)C(=O)N[C@@H](CCCN=C(N)N)C(=O)N[C@@H](CCCN=C(N)N)C(=O)N[C@@H](C)C(=O)N[C@@H](CCCN=C(N)N)C(=O)N[C@@H](C)C(=O)N[C@@H](C)C(=O)N[C@@H](C)C(=O)N[C@@H](C)C(=O)N[C@@H](C)C(=O)N[C@@H](C)C(=O)N[C@@H](C)C(=O)O (H-AAAAARRARAAAAAAA-OH) |
| – | 2900 nM | C[C@H](N)C(=O)N[C@@H](C)C(=O)N[C@@H](C)C(=O)N[C@@H](CCCN=C(N)N)C(=O)N[C@@H](C)C(=O)N[C@@H](C)C(=O)N[C@@H](CCCN=C(N)N)C(=O)N[C@@H](CCCN=C(N)N)C(=O)N[C@@H](C)C(=O)N[C@@H](CCCN=C(N)N)C(=O)N[C@@H](CCCN=C(N)N)C(=O)N[C@@H](CCCN=C(N)N)C(=O)N[C@@H](C)C(=O)N[C@@H](C)C(=O)N[C@@H](C)C(=O)O (H-AAARAARRARRRAAA-OH) |
| – | 66000 nM | C[C@H](N)C(=O)N[C@@H](C)C(=O)N[C@@H](C)C(=O)N[C@@H](C)C(=O)N[C@@H](C)C(=O)N[C@@H](CCCN=C(N)N)C(=O)N[C@@H](CCCN=C(N)N)C(=O)N[C@@H](CCCN=C(N)N)C(=O)N[C@@H](CCCN=C(N)N)C(=O)N[C@@H](CCCN=C(N)N)C(=O)N[C@@H](C)C(=O)N[C@@H](C)C(=O)N[C@@H](C)C(=O)N[C@@H](C)C(=O)N[C@@H](C)C(=O)N[C@@H](C)C(=O)O (H-AAAAARRRRRAAAAAA-OH) |
| – | 170 nM | C[C@H](N)C(=O)N[C@@H](C)C(=O)N[C@@H](C)C(=O)N[C@@H](C)C(=O)N[C@@H](CCCCN)C(=O)N[C@@H](CCCCN)C(=O)N[C@@H](CCCN=C(N)N)C(=O)N[C@@H](CCCN=C(N)N)C(=O)N[C@@H](C)C(=O)N[C@@H](CCCN=C(N)N)C(=O)N[C@@H](CCCN=C(N)N)C(=O)N[C@@H](CCCN=C(N)N)C(=O)N[C@@H](C)C(=O)N[C@@H](C)C(=O)N[C@@H](C)C(=O)O (H-AAAAKKRRARRRAAA-OH) |
| – | 18000 nM | C[C@H](N)C(=O)N[C@@H](C)C(=O)N[C@@H](C)C(=O)N[C@@H](C)C(=O)N[C@@H](C)C(=O)N[C@@H](CCCN=C(N)N)C(=O)N[C@@H](CCCN=C(N)N)C(=O)N[C@@H](C)C(=O)N[C@@H](CCCN=C(N)N)C(=O)N[C@@H](CCCN=C(N)N)C(=O)N[C@@H](CCCN=C(N)N)C(=O)N[C@@H](C)C(=O)N[C@@H](C)C(=O)N[C@@H](C)C(=O)N[C@@H](C)C(=O)N[C@@H](C)C(=O)O (H-AAAAARRARRRAAAAA-OH) |
| – | 70 nM | C[C@H](N)C(=O)N[C@@H](C)C(=O)N[C@@H](C)C(=O)N[C@@H](CCCN=C(N)N)C(=O)N[C@@H](CCCCN)C(=O)N[C@@H](CCCCN)C(=O)N[C@@H](CCCN=C(N)N)C(=O)N[C@@H](CCCN=C(N)N)C(=O)N[C@@H](CCC(N)=O)C(=O)N[C@@H](CCCN=C(N)N)C(=O)N[C@@H](CCCN=C(N)N)C(=O)N[C@@H](CCCN=C(N)N)C(=O)N[C@@H](C)C(=O)N[C@@H](C)C(=O)N[C@@H](C)C(=O)O (H-AAARKKRRQRRRAAA-OH) |
| – | 80 nM | C[C@H](N)C(=O)N[C@@H](C)C(=O)N[C@@H](C)C(=O)N[C@@H](CCCN=C(N)N)C(=O)N[C@@H](CCCCN)C(=O)N[C@@H](CCCCN)C(=O)N[C@@H](CCCN=C(N)N)C(=O)N[C@@H](CCCN=C(N)N)C(=O)N[C@@H](C)C(=O)N[C@@H](CCCN=C(N)N)C(=O)N[C@@H](CCCN=C(N)N)C(=O)N[C@@H](CCCN=C(N)N)C(=O)N[C@@H](C)C(=O)N[C@@H](C)C(=O)N[C@@H](C)C(=O)O (H-AAARKKRRARRRAAA-OH) |
| No binding | – | C[C@H](N)C(=O)N[C@@H](C)C(=O)N[C@@H](C)C(=O)N[C@@H](C)C(=O)N[C@@H](C)C(=O)N[C@@H](CCCN=C(N)N)C(=O)N[C@@H](CCCN=C(N)N)C(=O)N[C@@H](C)C(=O)N[C@@H](CCCN=C(N)N)C(=O)N[C@@H](CCCN=C(N)N)C(=O)N[C@@H](C)C(=O)N[C@@H](C)C(=O)N[C@@H](C)C(=O)N[C@@H](C)C(=O)N[C@@H](C)C(=O)N[C@@H](C)C(=O)O (H-AAAAARRARRAAAAAA-OH) |
